Data on 5 compounds can be found in ChEMBL document CHEMBL1268938, “Identification of a red-emitting fluorescent ligand for in vitro visualization of human serotonin 5-HT(1A) receptors” (Bioorg Med Chem Lett, 2010).

The target in this assay is T1, 5-hydroxytryptamine receptor 1A (Homo sapiens, UniProt P08908).
T1 sequence (P08908 whole entry): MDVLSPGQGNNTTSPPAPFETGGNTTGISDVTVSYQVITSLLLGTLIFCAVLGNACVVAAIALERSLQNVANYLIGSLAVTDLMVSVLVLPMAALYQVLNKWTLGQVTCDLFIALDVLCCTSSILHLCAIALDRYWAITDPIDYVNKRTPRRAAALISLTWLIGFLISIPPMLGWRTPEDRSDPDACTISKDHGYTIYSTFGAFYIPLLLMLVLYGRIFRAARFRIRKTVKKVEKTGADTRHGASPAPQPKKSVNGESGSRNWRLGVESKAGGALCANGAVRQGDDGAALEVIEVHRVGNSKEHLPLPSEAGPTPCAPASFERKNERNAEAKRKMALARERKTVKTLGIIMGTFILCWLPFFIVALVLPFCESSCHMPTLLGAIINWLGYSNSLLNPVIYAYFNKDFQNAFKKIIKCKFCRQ
As to the kind of experiment: Displacement of [3H]8-OH-DPAT from human cloned 5HT1A receptor expressed in HEK293 cells. It counts as cell-based.
In the case of `COc1ccccc1N1CCN(CCCCCNC(=O)c2ccc(SC3=C(/C=C/C4=[N+](CCCCS(=O)(=O)[O-])c5ccccc5C4(C)C)CCC/C3=C\C=C3\N(CCCCS(=O)(=O)O)c4ccccc4C3(C)C)cc2)CC1`, the inhibition constant (Ki) came to 65.8 nM. In the case of `COc1ccccc1N1CCN(CCc2cccc(OCCCCCOc3cccc(CCN4CCN(c5ccccc5OC)CC4)c3)c2)CC1`, the affinity corresponds to a Ki of 1.7 nM. In the case of `CCN(CC)c1ccc2cc(/C=C/C3=[N+](CCCCCC(=O)Oc4cccc(CCN5CCN(c6ccccc6OC)CC5)c4)c4ccccc4C3(C)C)c(=O)oc2c1` it was 35 nM.

In turn, `CCCCCN1CCN(c2ccccc2OC)CC1` came in with a Ki of 5.16 nM. As for `COc1cccc(CCN2CCN(c3ccccc3OC)CC2)c1`, the Ki worked out at 2.4 nM.
